Measurements as given in patent US6380167B1, “Methods for anti-tumor therapy” (priority 1999, dated 2002).
“Also recorded” adds a separate entry of the source. Read-outs that look alike come from different tables or passages of the source.

Tests used:
[1] = system: cells derived from ovarian tumor tissue; assay: Alamer Blue cellular respiration assay on cells derived from ovarian tumor tissue; assay type: cell-based; conditions: Homo sapiens
Excerpt: (§1) Excess tissue specimens obtained from a variety of organs and tissues such as colon, lung, kidney, stomach, and buttocks were obtained freshly at the time of surgery and samples were sent for pathological testing. For diagnosis and grading of tissue samples (ie: prior to processing), hematoxylin and eosin stained tissue sections were examined by a pathologist. If the diagnosis and grading of the tissue concurred with the determination made by the surgical pathologist that provided the tissue, then the tissue was used in the screen. If there was no agreement, then two additional pathologists served as referees. If no consensus was reached, then the tissue was discarded. […]
(§2) After tissue processing, the relative purity of the resulting cell suspension was determined by cytological examination after pap staining. […]
(§3) Cell preparations that passed histological and cytological examination for diagnosis, grading, and cell purity were thawed at 37° C. and resuspended in tissue culture medium designed to maintain the cells during the incubation period. The live and dead cells were counted and the cells were diluted in culture medium to 4.0×10^4 live cells/ml for tumor cells and 1.32×10^5 live cells/ml for normal cells. […]
(§4) The kinetics of cellular re-dox reactions were subsequently measured at various times, for example at 3 hours, 3 days, and 5 days post-dye addition. […]

[2] = toxic at concentrations above; cited from earlier work
[3] = in vivo; cited from earlier work
[4] = system: cells isolated from sarcoma patients; assay: Alamer Blue cellular respiration assay on cells isolated from sarcoma patients; assay type: cell-based; conditions: Homo sapiens
Excerpt: as §1, §2, §3, §4

patient tumor cells = assay: Comparison of cardiac glycosides in the anti-tumor assays; assay type: cell-based, human; conditions: cardiac glycosides tested
Method: Alamer Blue (Accumed International, Westlake Ohio) was then added to the cells at 1/10 the volume of the well, and the cells were further incubated at 37° C. for various times. Alamer Blue dye measures cellular re-dox reactions (ie: cellular respiration) whereby a spectral shift occurs upon reduction of the dye. (Excitation 530 nm; emission 590 nm)
The kinetics of cellular re-dox reactions were subsequently measured at various times, for example at 3 hours, 3 days, and 5 days post-dye addition.

[5] = range over samples, read-out: IC50 (range)

CC1OC(OC2C(O)CC(O[C@H]3CC[C@]4(C)C5CC[C@]6(C)[C@@H](C7=CC(=O)OC7)CC[C@]6(O)[C@@H]5CC[C@@H]4C3)O[C@@H]2C)C[C@H](O)[C@@H]1OC1CC(O)C(O)[C@@H](C)O1 (some centres unmarked) [digitoxin]
IC50 ([1]; mean, read-out: IC50 (mean)): 47 nM | IC50 [1, 5]: 31 to 126 nM | toxic concentration [2]: above 35 ng/ml; also recorded: approximately 46 nM | bound to plasma proteins [3]: greater than 95% | IC50 ([4]; mean, read-out: IC50 (mean)): 25 nM | IC50 [4, 5]: 13 to 48 nM

C[C@H]1O[C@@H](O[C@H]2[C@@H](O)C[C@H](O[C@H]3[C@@H](O)C[C@H](O[C@H]4CC[C@@]5(C)[C@H](CC[C@@H]6[C@@H]5C[C@@H](O)[C@]5(C)[C@@H](C7=CC(=O)OC7)CC[C@]65O)C4)O[C@@H]3C)O[C@@H]2C)C[C@H](O)[C@@H]1O [digoxin]
activity in the assays compared with digitoxin (patient tumor cells): Digitoxin appeared more active in the assays then digoxin

C[C@@H]1O[C@@H](O[C@H]2C[C@@H](O)[C@]3(CO)[C@H]4[C@H](O)C[C@]5(C)[C@@H](C6=CC(=O)OC6)CC[C@]5(O)[C@@H]4CC[C@]3(O)C2)[C@H](O)[C@H](O)[C@H]1O [oubain]
activity in the assays compared with digitoxin (patient tumor cells): equally active
